Measured values: PubChem BioAssay (NCI)
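These data come from cells grown in 96-well plates and exposed to compound for 48 hours at five concentrations. TGI: total growth inhibition.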

Tests used:
Assay in all cases: NCI anticancer screen, dose series, 48 h
786-0 renal = test system: 786-0 renal
A498 renal = test system: A498 renal
A549 NSCLC = test system: A549 NSCLC
ACHN renal = test system: ACHN renal
BT-549 breast = test system: BT-549 breast
CAKI-1 renal = test system: CAKI-1 renal
CCRF-CEM leukemia = test system: CCRF-CEM leukemia
COLO 205 colon = test system: COLO 205 colon
DU-145 prostate = test system: DU-145 prostate
HCC-2998 colon = test system: HCC-2998 colon
HCT-116 colon = test system: HCT-116 colon
HCT-15 colon = test system: HCT-15 colon
HL-60(TB) leukemia = test system: HL-60(TB) leukemia
HOP-92 NSCLC = test system: HOP-92 NSCLC
HT29 colon = test system: HT29 colon
IGROV1 ovarian = test system: IGROV1 ovarian
K-562 leukemia = test system: K-562 leukemia
KM12 colon = test system: KM12 colon
M14 melanoma = test system: M14 melanoma
MALME-3M melanoma = test system: MALME-3M melanoma
MCF7 breast = test system: MCF7 breast
MDA-MB-231 breast = test system: MDA-MB-231 breast
MDA-MB-435 = test system: MDA-MB-435
MDA-N = test system: MDA-N
MOLT-4 leukemia = test system: MOLT-4 leukemia
NCI-H226 lung = test system: NCI-H226 lung
NCI-H23 lung = test system: NCI-H23 lung
NCI-H460 lung = test system: NCI-H460 lung
NCI-H522 lung = test system: NCI-H522 lung
NCI/ADR-RES ovarian = test system: NCI/ADR-RES ovarian
OVCAR-4 ovarian = test system: OVCAR-4 ovarian
OVCAR-5 ovarian = test system: OVCAR-5 ovarian
OVCAR-8 ovarian = test system: OVCAR-8 ovarian
PC-3 prostate = test system: PC-3 prostate
RPMI-8226 leukemia = test system: RPMI-8226 leukemia
RXF 393 renal = test system: RXF 393 renal
SF-268 CNS = test system: SF-268 CNS
SF-295 CNS = test system: SF-295 CNS
SF-539 CNS = test system: SF-539 CNS
SK-MEL-2 melanoma = test system: SK-MEL-2 melanoma
SK-MEL-28 melanoma = test system: SK-MEL-28 melanoma
SK-MEL-5 melanoma = test system: SK-MEL-5 melanoma
SN12C renal = test system: SN12C renal
SNB-19 CNS = test system: SNB-19 CNS
SNB-75 CNS = test system: SNB-75 CNS
SR leukemia = test system: SR leukemia
SW-620 colon = test system: SW-620 colon
T-47D breast = test system: T-47D breast
TK-10 renal = test system: TK-10 renal
U251 CNS = test system: U251 CNS
UACC-257 melanoma = test system: UACC-257 melanoma
UACC-62 melanoma = test system: UACC-62 melanoma
UO-31 renal = test system: UO-31 renal
EKVX NSCLC = test system: EKVX NSCLC
HOP-62 NSCLC = test system: HOP-62 NSCLC
HS 578T breast = test system: HS 578T breast
LOX IMVI melanoma = test system: LOX IMVI melanoma
OVCAR-3 ovarian = test system: OVCAR-3 ovarian
SK-OV-3 ovarian = test system: SK-OV-3 ovarian

SMILES: O=C(Nc1nc2ccc([N+](=O)[O-])cc2[n+]([O-])n1)C(F)(F)F
- TGI (786-0 renal): > 100 µM
- TGI (A498 renal): 65.5 µM
- TGI (A549 NSCLC): 83.8 µM
- TGI (ACHN renal): 90.8 µM
- TGI (BT-549 breast): > 100 µM
- TGI (CAKI-1 renal): > 100 µM
- TGI (CCRF-CEM leukemia): > 100 µM
- TGI (COLO 205 colon): > 100 µM
- TGI (DU-145 prostate): > 100 µM
- TGI (HCC-2998 colon): > 100 µM
- TGI (HCT-116 colon): 60.1 µM
- TGI (HCT-15 colon): 98.8 µM
- TGI (HL-60(TB) leukemia): 34.9 µM
- TGI (HOP-92 NSCLC): > 100 µM
- TGI (HT29 colon): > 100 µM
- TGI (IGROV1 ovarian): 44.5 µM
- TGI (K-562 leukemia): 79.3 µM
- TGI (KM12 colon): > 100 µM
- TGI (M14 melanoma): > 100 µM
- TGI (MALME-3M melanoma): 20.4 µM
- TGI (MCF7 breast): 52.4 µM
- TGI (MDA-MB-231 breast): > 100 µM
- TGI (MDA-MB-435): 32 µM
- TGI (MDA-N): 34 µM
- TGI (MOLT-4 leukemia): 81.6 µM
- TGI (NCI-H226 lung): > 100 µM
- TGI (NCI-H23 lung): 80.3 µM
- TGI (NCI-H460 lung): > 100 µM
- TGI (NCI-H522 lung): > 100 µM
- TGI (NCI/ADR-RES ovarian): > 100 µM
- TGI (OVCAR-4 ovarian): > 100 µM
- TGI (OVCAR-5 ovarian): > 100 µM
- TGI (OVCAR-8 ovarian): > 100 µM
- TGI (PC-3 prostate): > 100 µM
- TGI (RPMI-8226 leukemia): 41.4 µM
- TGI (RXF 393 renal): > 100 µM
- TGI (SF-268 CNS): > 100 µM
- TGI (SF-295 CNS): > 100 µM
- TGI (SF-539 CNS): > 100 µM
- TGI (SK-MEL-2 melanoma): 65.2 µM
- TGI (SK-MEL-28 melanoma): > 100 µM
- TGI (SK-MEL-5 melanoma): 25.3 µM
- TGI (SN12C renal): > 100 µM
- TGI (SNB-19 CNS): > 100 µM
- TGI (SNB-75 CNS): > 100 µM
- TGI (SR leukemia): > 100 µM
- TGI (SW-620 colon): > 100 µM
- TGI (T-47D breast): > 100 µM
- TGI (TK-10 renal): > 100 µM
- TGI (U251 CNS): > 100 µM
- TGI (UACC-257 melanoma): 37.9 µM
- TGI (UACC-62 melanoma): 53.1 µM
- TGI (UO-31 renal): > 100 µM

SMILES: Cc1nc2ccccc2c(=O)n1NC(=O)c1ccccc1O
- TGI (786-0 renal): > 100 µM
- TGI (A498 renal): > 100 µM
- TGI (A549 NSCLC): > 100 µM
- TGI (ACHN renal): > 100 µM
- TGI (BT-549 breast): > 100 µM
- TGI (CCRF-CEM leukemia): > 100 µM
- TGI (COLO 205 colon): > 100 µM
- TGI (DU-145 prostate): > 100 µM
- TGI (EKVX NSCLC): > 100 µM
- TGI (HCC-2998 colon): > 100 µM
- TGI (HCT-116 colon): > 100 µM
- TGI (HCT-15 colon): > 100 µM
- TGI (HL-60(TB) leukemia): > 100 µM
- TGI (HOP-62 NSCLC): > 100 µM
- TGI (HOP-92 NSCLC): > 100 µM
- TGI (HS 578T breast): > 100 µM
- TGI (HT29 colon): > 100 µM
- TGI (IGROV1 ovarian): > 100 µM
- TGI (K-562 leukemia): > 100 µM
- TGI (KM12 colon): > 100 µM
- TGI (LOX IMVI melanoma): > 100 µM
- TGI (M14 melanoma): > 100 µM
- TGI (MCF7 breast): > 100 µM
- TGI (MDA-MB-231 breast): > 100 µM
- TGI (MDA-MB-435): > 100 µM
- TGI (MDA-N): > 100 µM
- TGI (MOLT-4 leukemia): > 100 µM
- TGI (NCI-H226 lung): > 100 µM
- TGI (NCI-H23 lung): > 100 µM
- TGI (NCI-H460 lung): > 100 µM
- TGI (NCI-H522 lung): > 100 µM
- TGI (OVCAR-3 ovarian): > 100 µM
- TGI (OVCAR-4 ovarian): > 100 µM
- TGI (OVCAR-5 ovarian): > 100 µM
- TGI (OVCAR-8 ovarian): > 100 µM
- TGI (PC-3 prostate): > 100 µM
- TGI (RPMI-8226 leukemia): > 100 µM
- TGI (RXF 393 renal): > 100 µM
- TGI (SF-268 CNS): > 100 µM
- TGI (SF-295 CNS): > 100 µM
- TGI (SF-539 CNS): > 100 µM
- TGI (SK-MEL-28 melanoma): > 100 µM
- TGI (SK-MEL-5 melanoma): > 100 µM
- TGI (SK-OV-3 ovarian): > 100 µM
- TGI (SN12C renal): > 100 µM
- TGI (SNB-19 CNS): > 100 µM
- TGI (SNB-75 CNS): > 100 µM
- TGI (SR leukemia): > 100 µM
- TGI (SW-620 colon): > 100 µM
- TGI (TK-10 renal): > 100 µM
- TGI (U251 CNS): > 100 µM
- TGI (UACC-257 melanoma): > 100 µM
- TGI (UACC-62 melanoma): > 100 µM
- TGI (UO-31 renal): > 100 µM
